Measurements as given in patent US20230364119A1, “AUTOPHAGY ACTIVATOR” (Resonac Corporation, priority 2020, published 2023).

Experiments:
Beclin 1 gene = Beclin 1 gene expression promoting effect in human senescent fibroblasts (quantitative real-time PCR); format: cell-based
Procedure: Senescent fibroblasts were prepared by the following procedure.
Normal human fibroblasts (NB1RGB, RIKEN BRC Cell Bank) were cultured until confluent in D-MEM medium (manufactured by Sigma-Aldrich) to which 10% fetal bovine serum (manufactured by MP Biomedicals) was added. Thereafter, the cells were treated with 250 μM aqueous hydrogen peroxide for 2 hours, and cultured for 24 hours in D-MEM medium to which fresh 10% fetal bovine serum was added. The treatment with aqueous hydrogen peroxide and the cell culture operation were repeated three times, and the obtained fibroblasts were used as senescent fibroblasts.
The prepared senescent fibroblasts were prepared at a seeding density of 10000 cells/cm^2 and cultured for 24 hours in D-MEM medium (manufactured by Sigma-Aldrich) to which 10% fetal bovine serum (manufactured by MP Biomedicals) was added. […]
Then, using Nucleospin (registered trademark) RNA kit (manufactured by Takara Bio Inc.), RNA was extracted from senescent fibroblasts or normal human fibroblasts in each example, and cDNA was synthesized from the obtained RNA. Next, using this cDNA as a template, by quantitative real-time PCR, the expression level of each gene was quantified using primers (manufactured by Takara Bio Inc.) specific to the LC3 gene, ATG5 gene, and Beclin 1 gene, respectively. […]

ATG5 gene = ATG5 gene expression promoting effect in human neuroblastoma in the presence of amyloid β; format: cell-based
Procedure: In the presence of an autophagy activator, the expression levels of the LC3 gene, ATG5 gene, and Beclin 1 gene in human neuroblastoma (SH-SY5Y; obtained from ATCC) were measured by the following test method, and the effect of promoting the expression of the LC3 gene, ATG5 gene, and Beclin 1 gene by an autophagy activator was evaluated.
In the following examples and comparative examples, tests were performed by adding amyloid β, which is known to cause a decrease in autophagy in nerve cells, to each medium.
SH-SY5Y cells were prepared at a seeding density of 10000 cells/cm^2 and cultured for 24 hours in D-MEM medium/Ham's F-12 medium (manufactured by Sigma-Aldrich) to which 10% fetal bovine serum (manufactured by MP Biomedicals) was added. Next, in Example 15, the inositol derivative A dissolved in purified water was added to the medium such that the final concentration of the inositol derivative A was 10-4% (V/V). […]
Then, using Nucleospin (registered trademark) RNA kit (manufactured by Takara Bio Inc.), RNA was extracted from SH-SY5Y cells in each example, and cDNA was synthesized from the obtained RNA. Next, using this cDNA as a template, by quantitative real-time PCR, the expression level of each gene was quantified using primers (manufactured by Takara Bio Inc.) specific to the LC3 gene, ATG5 gene, and Beclin 1 gene, respectively. […]

With `O[C@H]1[C@H](O)[C@@H](O)[C@H](O)[C@@H](O)[C@H]1O` [Comparative Example 2, myo-inositol] the “Relative gene expression level Beclin 1” value (Beclin 1 gene; 24 hours, 10^−3% (V/V) inositol or inositol derivative A, with the vitamin derivative of the example where added, GAPDH-standardized, Comparative Example 1 (purified water) = 1.00) was 1.30, the “expression level of the Beclin 1 gene, in words” value (Beclin 1 gene; compared to Comparative Example 1 (purified water only)) was “more increased” and the “expression level of the ATG5 gene, in words” value (ATG5 gene; SH-SY5Y cells with amyloid β, compared to Reference Example 3 (purified water only, no amyloid β)) was “slightly increased”. For the same molecule, the “Relative gene expression level ATG5” value (ATG5 gene; SH-SY5Y cells, 20 μM amyloid β present, 48 hours, 10^−3% (V/V) inositol or inositol derivative A, with the vitamin derivative of the example where added, Reference Example 3 (purified water, no amyloid β) = 1.00) was 1.39.
